Source: PubChem BioAssay (NCI)
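The compound was tested at five concentrations on cells cultured in 96-well plates, with a 48-hour exposure period. GI50 marks 50% less growth. TGI is the concentration that stops growth completely.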

Assays:
Test in all cases: NCI-60 cell line screen, 48 h
RPMI-8226 leukemia = tested on: RPMI-8226 leukemia
MALME-3M melanoma = tested on: MALME-3M melanoma
T-47D breast = tested on: T-47D breast
MOLT-4 leukemia = tested on: MOLT-4 leukemia
SF-268 CNS = tested on: SF-268 CNS
SK-MEL-5 melanoma = tested on: SK-MEL-5 melanoma
LOX IMVI melanoma = tested on: LOX IMVI melanoma
HCC-2998 colon = tested on: HCC-2998 colon
SR leukemia = tested on: SR leukemia
BT-549 breast = tested on: BT-549 breast
MCF7 breast = tested on: MCF7 breast
HOP-62 NSCLC = tested on: HOP-62 NSCLC
IGROV1 ovarian = tested on: IGROV1 ovarian
HS 578T breast = tested on: HS 578T breast
MDA-MB-435 = tested on: MDA-MB-435
OVCAR-5 ovarian = tested on: OVCAR-5 ovarian
SNB-75 CNS = tested on: SNB-75 CNS
ACHN renal = tested on: ACHN renal
UACC-257 melanoma = tested on: UACC-257 melanoma
MDA-MB-231 breast = tested on: MDA-MB-231 breast
NCI-H460 lung = tested on: NCI-H460 lung
NCI/ADR-RES ovarian = tested on: NCI/ADR-RES ovarian
SK-MEL-2 melanoma = tested on: SK-MEL-2 melanoma
CAKI-1 renal = tested on: CAKI-1 renal
UO-31 renal = tested on: UO-31 renal
HT29 colon = tested on: HT29 colon
A549 NSCLC = tested on: A549 NSCLC
DU-145 prostate = tested on: DU-145 prostate
SF-295 CNS = tested on: SF-295 CNS
A498 renal = tested on: A498 renal
U251 CNS = tested on: U251 CNS
HCT-15 colon = tested on: HCT-15 colon
COLO 205 colon = tested on: COLO 205 colon
UACC-62 melanoma = tested on: UACC-62 melanoma
HCT-116 colon = tested on: HCT-116 colon
PC-3 prostate = tested on: PC-3 prostate
KM12 colon = tested on: KM12 colon
NCI-H522 lung = tested on: NCI-H522 lung
NCI-H23 lung = tested on: NCI-H23 lung
786-0 renal = tested on: 786-0 renal
SK-OV-3 ovarian = tested on: SK-OV-3 ovarian
CCRF-CEM leukemia = tested on: CCRF-CEM leukemia
NCI-H226 lung = tested on: NCI-H226 lung
OVCAR-4 ovarian = tested on: OVCAR-4 ovarian
SK-MEL-28 melanoma = tested on: SK-MEL-28 melanoma
OVCAR-3 ovarian = tested on: OVCAR-3 ovarian
SW-620 colon = tested on: SW-620 colon
OVCAR-8 ovarian = tested on: OVCAR-8 ovarian
HL-60(TB) leukemia = tested on: HL-60(TB) leukemia
SF-539 CNS = tested on: SF-539 CNS
K-562 leukemia = tested on: K-562 leukemia
SN12C renal = tested on: SN12C renal
SNB-19 CNS = tested on: SNB-19 CNS
M14 melanoma = tested on: M14 melanoma
RXF 393 renal = tested on: RXF 393 renal

Compound: COc1cc(Cl)cc(-c2nn(-c3cccc(NC(=O)c4ccc(N5CCOCC5)c(C(F)(F)F)c4)c3)cc2-c2ccncc2)c1
- GI50 (RPMI-8226 leukemia): 1.5 µM
- TGI (RPMI-8226 leukemia): > 100 µM
- GI50 (MALME-3M melanoma): 28.3 µM
- TGI (MALME-3M melanoma): > 100 µM
- GI50 (T-47D breast): 10.4 µM
- TGI (T-47D breast): > 100 µM
- GI50 (MOLT-4 leukemia): 5.49 µM
- TGI (MOLT-4 leukemia): > 100 µM
- GI50 (SF-268 CNS): > 100 µM
- TGI (SF-268 CNS): > 100 µM
- GI50 (SK-MEL-5 melanoma): 16.5 µM
- TGI (SK-MEL-5 melanoma): > 100 µM
- GI50 (LOX IMVI melanoma): 15.8 µM
- TGI (LOX IMVI melanoma): > 100 µM
- GI50 (HCC-2998 colon): 6.06 µM
- TGI (HCC-2998 colon): 74.7 µM
- GI50 (SR leukemia): 3.06 µM
- TGI (SR leukemia): > 100 µM
- GI50 (BT-549 breast): 89 µM
- TGI (BT-549 breast): > 100 µM
- GI50 (MCF7 breast): 8.71 µM
- TGI (MCF7 breast): > 100 µM
- GI50 (HOP-62 NSCLC): 62.5 µM
- TGI (HOP-62 NSCLC): > 100 µM
- GI50 (IGROV1 ovarian): > 100 µM
- TGI (IGROV1 ovarian): > 100 µM
- GI50 (HS 578T breast): 6.48 µM
- TGI (HS 578T breast): > 100 µM
- GI50 (MDA-MB-435): 43.6 µM
- TGI (MDA-MB-435): > 100 µM
- GI50 (OVCAR-5 ovarian): 32.5 µM
- TGI (OVCAR-5 ovarian): > 100 µM
- GI50 (SNB-75 CNS): 2.08 µM
- TGI (SNB-75 CNS): > 100 µM
- GI50 (ACHN renal): 7.31 µM
- TGI (ACHN renal): > 100 µM
- GI50 (UACC-257 melanoma): 21.7 µM
- TGI (UACC-257 melanoma): 69.1 µM
- GI50 (MDA-MB-231 breast): 2.83 µM
- TGI (MDA-MB-231 breast): 32.4 µM
- GI50 (NCI-H460 lung): 4.8 µM
- TGI (NCI-H460 lung): > 100 µM
- GI50 (NCI/ADR-RES ovarian): 6.17 µM
- TGI (NCI/ADR-RES ovarian): > 100 µM
- GI50 (SK-MEL-2 melanoma): 21.1 µM
- TGI (SK-MEL-2 melanoma): > 100 µM
- GI50 (CAKI-1 renal): 4.4 µM
- TGI (CAKI-1 renal): > 100 µM
- GI50 (UO-31 renal): 4.5 µM
- TGI (UO-31 renal): > 100 µM
- GI50 (HT29 colon): 4.09 µM
- TGI (HT29 colon): 38 µM
- GI50 (A549 NSCLC): 9.15 µM
- TGI (A549 NSCLC): > 100 µM
- GI50 (DU-145 prostate): > 100 µM
- TGI (DU-145 prostate): > 100 µM
- GI50 (SF-295 CNS): 2.21 µM
- TGI (SF-295 CNS): 14.8 µM
- GI50 (A498 renal): 16.2 µM
- TGI (A498 renal): > 100 µM
- GI50 (U251 CNS): 5.03 µM
- TGI (U251 CNS): > 100 µM
- GI50 (HCT-15 colon): 3.25 µM
- TGI (HCT-15 colon): > 100 µM
- GI50 (COLO 205 colon): 22.2 µM
- TGI (COLO 205 colon): > 100 µM
- GI50 (UACC-62 melanoma): 9.1 µM
- TGI (UACC-62 melanoma): > 100 µM
- GI50 (HCT-116 colon): 9.64 µM
- TGI (HCT-116 colon): > 100 µM
- GI50 (PC-3 prostate): 3.3 µM
- TGI (PC-3 prostate): > 100 µM
- GI50 (KM12 colon): 5.38 µM
- TGI (KM12 colon): > 100 µM
- GI50 (NCI-H522 lung): 4.72 µM
- TGI (NCI-H522 lung): > 100 µM
- GI50 (NCI-H23 lung): 30.7 µM
- TGI (NCI-H23 lung): > 100 µM
- GI50 (786-0 renal): 3.23 µM
- TGI (786-0 renal): 29.8 µM
- GI50 (SK-OV-3 ovarian): > 100 µM
- TGI (SK-OV-3 ovarian): > 100 µM
- GI50 (CCRF-CEM leukemia): 3.88 µM
- TGI (CCRF-CEM leukemia): > 100 µM
- GI50 (NCI-H226 lung): 93.4 µM
- TGI (NCI-H226 lung): > 100 µM
- GI50 (OVCAR-4 ovarian): 39.7 µM
- TGI (OVCAR-4 ovarian): > 100 µM
- GI50 (SK-MEL-28 melanoma): 14.8 µM
- TGI (SK-MEL-28 melanoma): > 100 µM
- GI50 (OVCAR-3 ovarian): 53.1 µM
- TGI (OVCAR-3 ovarian): > 100 µM
- GI50 (SW-620 colon): 29.8 µM
- TGI (SW-620 colon): > 100 µM
- GI50 (OVCAR-8 ovarian): 6.33 µM
- TGI (OVCAR-8 ovarian): > 100 µM
- GI50 (HL-60(TB) leukemia): 4.19 µM
- TGI (HL-60(TB) leukemia): 33.2 µM
- GI50 (SF-539 CNS): 3.74 µM
- TGI (SF-539 CNS): > 100 µM
- GI50 (K-562 leukemia): 3.1 µM
- TGI (K-562 leukemia): > 100 µM
- GI50 (SN12C renal): > 100 µM
- TGI (SN12C renal): > 100 µM
- GI50 (SNB-19 CNS): > 100 µM
- TGI (SNB-19 CNS): > 100 µM
- GI50 (M14 melanoma): 7.93 µM
- TGI (M14 melanoma): > 100 µM
- GI50 (RXF 393 renal): 0.83 µM
- TGI (RXF 393 renal): 23.9 µM
